Assays:
carrot = assay: Phytotoxicity of foliar spray in uninfected carrot (Example 1); assay type: in vivo, Daucus carota; settings: 500 μM foliar spray, 8 plants per treatment
Experimental: Carrot seeds, cv. Nantes 2 (Vreeken's Zaden, Dordrecht, the Netherlands) were germinated on wet paper for seven days at 21° C. After germination, seedlings were transferred to individual pots filled with potting soil and placed in a growth chamber at 21° C.
(§1) Unless otherwise mentioned, all chemicals for nematode experiments were applied as a foliar spray consisting of the target compound at a concentration of 300 μM together with 0.1% (v/v) Tween 20 surfactant (Calbiochem) in distilled water. Again unless otherwise mentioned, all treatments for the nematode experiments were carried out three times: one and eight days before pathogen inoculation and seven days after pathogen inoculation. In all cases, plants were sprayed until run-off with an atomizer.
Short-term phytotoxicity experiments (Example 1) were analyzed using non-parametric methods. For each variable, overall significance was determined using the Kruskal-Wallis test (Kruskal and Wallis, 1952), followed by a posthoc Conover-Iman test (Conover and Iman, 1981) with Hommel multiplicity correction (Hommel, 1988) if the Kruskal-Wallis test was significant. When only two groups were present, the Wilcoxon-Mann-Whitney test was used (Mann and Whitney, 1947).
To test whether C4H inhibitors induce phytotoxic effects in crops, uninfected tomato, wheat and carrot were treated with piperonylic acid (PA), 4-iodobenzoic acid (4-IBA) and piperic acid (PIA) at a concentration of 500 μM through foliar application. At harvest, leaf area (or shoot length in the case of wheat) and primary root length were recorded. The BBCH developmental stage (Lancashire et al., 1991), a measure of developmental retardation, was used to test for effects on development. Finally, the presence of visible signs of phytotoxicity such as chlorosis, discoloration or necrosis was recorded.

Meloidogyne graminicola [1] = assay: Meloidogyne graminicola infection in rice cv. Kitaake, additional C4H inhibitors (Example 6); assay type: in vivo; settings: foliar spray, N=8
Experimental: as §1
(§2) Infection experiments with M. graminicola were performed by inoculating host plants 14 days after transfer to SAP by introducing the desired amount of J2 juveniles next to the root system using a micro pipette. Rice plants (cv. Nipponbare or Kitaake) were inoculated with 250 J2 juveniles per plant; wheat plants (cv. Sahara) were inoculated with 600 J2 juveniles per plant. Plants were harvested 14 days after inoculation. At this point, the plants were phenotyped by measuring the shoot and root length with a ruler, counting the number of adventitious roots and in some experiments by measuring leaf area using the EasyLeafArea software (Easlon and Bloom, 2014) and by determining shoot dry mass after 72 hours of drying in an oven at 70° C. Root systems were then stained in acid fuchsine as described in (Byrd et al., 1983) and left to destain in glycerol with 1 ml/l fuming HCl added for approximately ten days. The number of galls and nematodes was then counted using a binocular microscope.
Four different C4H inhibitors were used: piperonylic acid (PA), piperine (PIP), 4-propynyloxybenzoic acid (4PB) and 3-(4-pyridyl)acrylic acid (3PA).

Meloidogyne graminicola [2] = assay: Application regimens of PA, rice - Meloidogyne graminicola (Example 8); assay type: in vivo
Experimental: Seed coatings were applied by dipping seeds in a coating solution containing 20 g/I high viscosity carboxymethylcellulose (Sigma-Aldrich, Saint Louis, USA) in distilled water as well as 300 μM of the target compound. Seeds were then dried overnight at room temperature.
as §2
Four application regimes for PA on the rice-Meloidogyne graminicola interaction were compared: a seed coating treatment, a single high-dose foliar spray prior to infection, a single high-dose foliar spray after infection and repeated lower-dose foliar sprays throughout the growing period.
One hundred rice seeds (cv. Nipponbare) were randomly divided into five groups of twenty seeds: a control group, seeds that were coated with carboxymethylcellulose containing 300 μM PA (PA coating), a group that would be foliarly sprayed with 100 μM PA solution three times per week (PA continuous), a group that would be sprayed once with a 300 μM PA solution one day prior to nematode inoculation (PA−1 dpi) and a group that would be sprayed once with a 300 μM PA solution seven days after nematode inoculation (PA+7 dpi).
The experiment was carried out as per the materials and methods described in Materials and Methods, sections Oryza sativa (rice) and Meloidogyne graminicola culture.

[3] = test system: Pseudomonas syringae (pv. DC3000); assay: Pseudomonas syringae infection experiment in tomato (Example 21); assay type: in vivo; settings: PA foliar spray
Experimental: Tomato plants (Solanum lycopersicum cv. Moneymaker) were grown in potting soil as described in the plant materials section until the fourth leaf stage. Plants were treated with a piperonylic acid or control spray as described in the chemicals section. Twenty-four hours before inoculation, the tomato plants were placed in a sealed cloche to keep humidity at 100%.
A glycerol stock of P. syringae pv. DC3000 kept at−80° C. was spotted on petri dishes containing King's B agar amended with 75 μg/ml rifampicine (Duchefa Biochemie, Haarlem, the Netherlands). The plates were incubated in the dark at 28° C. for one week. At this time point, glass test tubes containing 5 ml of liquid King's B each (without rifampicin) were inoculated with cells from the plates and placed on an orbital shaker at 200 rpm for 24 hours at 28° C. 100 μl of this liquid inoculum was transferred to fresh glass test tubes containing 5 ml of liquid King's B each (without rifampicin), which were placed on an orbital shaker at 200 rpm for 24 hours at 28° C.
At this time point, the liquid culture was diluted with fresh King's B medium to an OD of 1.0. This medium was then centrifuged at 3000 rpm for ten minutes; the supernatant was discarded and the cells were resuspended in 10 mM MgSO4 to an OD of 0.20. To this inoculum, 0.01 v/v % Silwet 77 surfactant was added.
Whole tomato plants were inoculated by briefly dipping them in a beaker of the aforementioned inoculum. After dipping, plants were placed back in the sealed cloche for 12 hours. […]
Due to the difference in disease progression, two different scoring systems were used. In the first experiment, the number of lesions per plant was counted three days after inoculation and the percentage of leaf area covered by lesions was quantified using the ImageJ software after seven days. In the second experiment, each fully developed leaf was scored on a disease scale between 0 and 4 as follows: 0=no visible symptoms; 1=isolated lesions; 2=large lesions, covering <50% of leaf area; 3=lesions covering more than half of the leaf area; 4=leaf irreversibly shriveled or abscised. […]

[4] = PA +7 dpi: sprayed once with 300 μM PA seven days after inoculation, n = 8
[5] = PA coating: seeds coated with carboxymethylcellulose solution containing 300 μM PA, n = 7
[6] = PA continuous: sprayed three times a week with 100 μM PA, n = 9
[7] = PA −1 dpi: sprayed once with 300 μM PA one day before inoculation, n = 8

Which results are given for `O=C(O)c1ccc2c(c1)OCO2` [PA, Piperonylic acid]?
Leaf Area (carrot; mean ± standard deviation): 6.07 ± 2.12 cm^2; BBCH stage (carrot; median ± interquartile range): 13 ± 0; reduction in the number of galls compared to the control group (Meloidogyne graminicola [1]): −40%; Fraction of small galls (Meloidogyne graminicola [2]; [4]): 0.91 ± 0.11; Number of galls (Meloidogyne graminicola [2]; [4]): 18.1 ± 13.6; Number of galls per AR (Meloidogyne graminicola [2]; [4]): 1.1 ± 0.6; Fraction of small galls (Meloidogyne graminicola [2]; [5]): 0.96 ± 0.04; Number of galls (Meloidogyne graminicola [2]; [5]): 19.0 ± 11.0; Number of galls per AR (Meloidogyne graminicola [2]; [5]): 1.3 ± 0.8; Fraction of small galls (Meloidogyne graminicola [2]; [6]): 0.95 ± 0.08; Number of galls (Meloidogyne graminicola [2]; [6]): 18.1 ± 13.1; Number of galls per AR (Meloidogyne graminicola [2]; [6]): 1.2 ± 0.7; mortality of seedlings from seeds coated with PA (Meloidogyne graminicola [2]; PA seed coating, two out of ten in the control group, not statistically significant): four of ten; Fraction of small galls (Meloidogyne graminicola [2]; [7]): 0.91 ± 0.06; Number of galls (Meloidogyne graminicola [2]; [7]): 25.3 ± 9.4; Number of galls per AR (Meloidogyne graminicola [2]; [7]): 1.4 ± 0.5; mean percentage of leaf area covered by lesions ([3]; first experiment, after seven days): reduced; change of total number of lesions per plant ([3]; first experiment, three days after inoculation, vs control): −25%; reduction of mean plant disease index ([3]; second experiment, scale 0 to 4): 20%

Reference: US11992011B2, “Compounds for controlling plant pathogens” (VIB VZW, priority 2017, dated 2024)
